{"source": "patent US5965539A", "about": "“Inhibitors of prenyl transferases” (Univeristy of Pittsburgh, priority 1996, dated 1999)", "key": {"FTase": {"target": "T1, FTase (Homo sapiens, UniProt P49356)", "T1 construct": "FTase and GGTase I activities from 60,000×g supernatants of human Burkitt lymphoma (Daudi) cells; endogenous in cells; host or cells: human Burkitt lymphoma (Daudi) cells, 60,000xg supernatant (partially purified)", "T1 sequence (P49356 whole entry)": "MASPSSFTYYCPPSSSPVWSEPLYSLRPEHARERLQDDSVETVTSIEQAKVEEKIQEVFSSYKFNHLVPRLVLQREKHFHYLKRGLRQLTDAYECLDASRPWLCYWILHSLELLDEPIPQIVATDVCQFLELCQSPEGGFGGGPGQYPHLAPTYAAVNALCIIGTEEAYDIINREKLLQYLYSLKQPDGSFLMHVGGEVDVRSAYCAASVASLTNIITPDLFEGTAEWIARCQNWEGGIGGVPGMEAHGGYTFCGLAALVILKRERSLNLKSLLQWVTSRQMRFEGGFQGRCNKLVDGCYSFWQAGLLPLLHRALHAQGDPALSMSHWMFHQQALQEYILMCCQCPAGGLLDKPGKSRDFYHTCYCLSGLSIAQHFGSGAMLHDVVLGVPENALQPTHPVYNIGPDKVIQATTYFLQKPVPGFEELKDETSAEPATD", "assay": "FTase activity assay: transfer of [3H]farnesyl from FPP to recombinant H-Ras-CVLS, Daudi 60,000xg supernatant", "format": "biochemical", "conditions": "Table 1"}, "GGTase I": {"target": "T2, GGTase I (Homo sapiens, UniProt P53609)", "T2 construct": "FTase and GGTase I activities from 60,000×g supernatants of human Burkitt lymphoma (Daudi) cells; endogenous in cells; host or cells: human Burkitt lymphoma (Daudi) cells, 60,000xg supernatant (partially purified)", "T2 sequence (P53609 whole entry)": "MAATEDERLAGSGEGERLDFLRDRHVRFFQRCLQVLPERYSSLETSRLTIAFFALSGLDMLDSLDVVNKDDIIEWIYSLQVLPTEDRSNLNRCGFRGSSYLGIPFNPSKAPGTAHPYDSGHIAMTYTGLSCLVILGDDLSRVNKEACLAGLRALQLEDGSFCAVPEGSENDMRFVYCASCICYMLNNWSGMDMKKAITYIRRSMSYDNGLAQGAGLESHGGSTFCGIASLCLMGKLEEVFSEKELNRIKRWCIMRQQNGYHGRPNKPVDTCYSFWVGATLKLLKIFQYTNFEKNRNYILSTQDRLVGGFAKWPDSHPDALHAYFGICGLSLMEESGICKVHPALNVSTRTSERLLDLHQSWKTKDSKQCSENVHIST", "assay": "GGTase I activity assay: transfer of [3H]geranylgeranyl to recombinant H-Ras-CVLL, Daudi 60,000xg supernatant", "format": "biochemical", "conditions": "Table 1; read-out: GGTase I IC50"}, "[1]": {"test_system": "Raf-transformed NIH 3T3 cells", "conditions": "50 mg/kg once daily"}}, "data": [{"smiles": "COC(=O)[C@H](CCSC)NC(=O)c1ccc(NC[C@@H](N)CS)cc1-c1ccccc1", "note": "[FTI-277, 4-N-[2(R)-Amino-3-mercaptopropyl]amino-2-phenylbenzoyl methionine methyl ester]", "values": [{"measurement": "GG/F", "setting": "FTase; ratio GGTase I IC50 / FTase IC50", "value": 32}, {"measurement": "IC50", "setting": "FTase; read-out: FTase IC50", "value": 50, "unit": "nM"}, {"measurement": "IC50", "setting": "GGTase I", "value": 1600, "unit": "nM"}, {"measurement": "growth of Raf-transformed NIH 3T3 cells", "setting": "[1]", "value": "had no effect"}]}]}
